Measurements: ChEMBL document CHEMBL4673309, “Synthesis and anticancer activity of new coumarin-3-carboxylic acid derivatives as potential lactatetransportinhibitors” (Bioorg Med Chem, 2021)
Calls of active or inactive are those of the source. The calls are words filed in the database; no cut-off is given here.

How the values were obtained:
NCM460 = assay: Cytotoxicity against human NCM460 cells harboring low MCT1 expression incubated for 72 hrs by MTT assay; type: cell-based; conditions: ncm460, 72 h
HCT-116 [1] = assay: Cytotoxicity against human HCT-116 cells overexpressing MCT-1 assessed as reduction in cell viability measured after 72 hrs by MTT assay; type: functional, cell-based; conditions: HCT-116, 72 h
HeLa [2] = assay: Cytotoxicity against human HeLa cells overexpressing MCT-1 assessed as reduction in cell viability measured after 72 hrs by MTT assay; type: functional, cell-based
HCT-116 [3] = assay: Antiproliferative activity against human HCT-116 cells assessed as reduction in cell proliferation at IC50 incubated for 6 days and measured on day 6 by MTS assay; type: functional, cell-based; conditions: time 6.0 day
HeLa [4] = assay: Induction of apoptosis in human HeLa cells assessed as early apoptosis measured after 48 hrs by annexinV-FITC/propidium iodide staining based by flow cytometry (reference value: 2.94 %); type: functional
HeLa [5] = assay: Induction of apoptosis in human HeLa cells assessed as late apoptotic cells measured after 48 hrs by annexinV-FITC/propidium iodide staining based by flow cytometry (reference value: 3.85 %); type: functional
HCT-116 [6] = assay: Induction of apoptosis in human HCT-116 cells assessed as early apoptosis measured after 48 hrs by annexinV-FITC/propidium iodide staining based by flow cytometry (reference value: 3.42 %); type: functional
HCT-116 [7] = assay: Induction of apoptosis in human HCT-116 cells assessed as late apoptotic cells measured after 48 hrs by annexinV-FITC/propidium iodide staining based by flow cytometry (reference value: 2.78 %); type: functional
HeLa [8] = assay: Reduction of lactate production in human HeLa cells at IC50 after 8 hrs by colorimetric assay; type: functional, cell-based
HCT-116 [9] = assay: Decrease in glucose consumption in human HCT-116 cells at IC50 after 4 to 24 hrs by glucose oxidase based colorimetric assay; type: functional, cell-based; conditions: time 4-24 hrs
HCT-116 [10] = assay: Reduction of lactate production in human HCT-116 cells at IC50 after 4 to 24 hrs by colorimetric assay; type: functional, cell-based; conditions: time 4-24 hrs
HeLa [11] = assay: Decrease in intracellular glucose level in human HeLa cells at IC50 after 4 hrs by colorimetric assay; type: functional, cell-based
HeLa [12] = assay: Inhibition of lactate transport in human HeLa cells assessed as increase in intracellular lactate level at IC50 measured after 8 to 24 hrs by colorimetric assay; type: functional, cell-based; conditions: time 8-24 hrs
HeLa [13] = assay: Antiproliferative activity against human HeLa cells assessed as reduction in cell proliferation at IC50 incubated for 6 days and measured on day 6 by MTS assay; type: functional, cell-based; conditions: time 6.0 day
HeLa [14] = assay: Downregulation of MCT1 expression in human HeLa cells at 0.01 to 100 uM measured after 48 hrs by Western blot analysis; type: functional, cell-based; conditions: dose 0.01-100 µM
HCT-116 [15] = assay: Downregulation of MCT1 expression in human HCT-116 cells at 0.01 to 100 uM measured after 48 hrs by Western blot analysis; type: functional, cell-based; conditions: dose 0.01-100 µM
HeLa [16] = assay: Decrease in glucose consumption in human HeLa cells at IC50 after 12 hrs by glucose oxidase based colorimetric assay; type: functional, cell-based
HeLa [17] = assay: Decrease in intracellular glucose level in human HeLa cells at IC50 after 24 hrs by colorimetric assay; type: functional, cell-based
HCT-116 [18] = assay: Decrease in intracellular glucose level in human HCT-116 cells at IC50 after 24 hrs by colorimetric assay; type: functional, cell-based
HCT-116 [19] = assay: Decrease in intracellular glucose level in human HCT-116 cells at IC50 after 4 hrs by colorimetric assay; type: functional, cell-based
HCT-116 [20] = assay: Inhibition of lactate transport in human HCT-116 cells assessed as increase in intracellular lactate level at IC50 measured after 8 hrs by colorimetric assay; type: functional, cell-based
HCT-116 [21] = assay: Inhibition of lactate uptake in human HCT-116 cells at 0.01 to 100 uM after 24 hrs by colorimetric assay; type: functional, cell-based; conditions: dose 0.01-100 µM
HeLa [22] = assay: Inhibition of lactate uptake in human HeLa cells at low concentration after 24 hrs by colorimetric assay; type: functional, cell-based
HeLa [23] = assay: Inhibition of lactate uptake in human HeLa cells at high concentration after 24 hrs by colorimetric assay; type: functional, cell-based

| Compound | Activity (NCM460) | IC50 (HCT-116 [1]) [µM] | IC50 (HeLa [2]) [µM] | also measured |
| --- | --- | --- | --- | --- |
| CCN(CC)c1ccc2cc(C(=O)N/N=C(/C)c3cccnc3)c(=O)oc2c1 | Non-Toxic | > 100 | 70 |  |
| O=C(NCCNC(=O)c1cc2ccc(OCc3cccc(Br)c3)cc2oc1=O)c1cc2ccc(OCc3cccc(Br)c3)cc2oc1=O | Non-Toxic | 11.6 | 5.52 |  |
| NNC(=O)c1cc2ccc(OCc3ccc([N+](=O)[O-])cc3)cc2oc1=O | Non-Toxic | > 100 | > 100 |  |
| CCN(CC)c1ccc2cc(C(=O)NC(C)C)c(=O)oc2c1 | Non-Toxic | > 100 | 73 |  |
| CCOc1ccc2cc(C(=O)NN)c(=O)oc2c1 | Non-Toxic | > 100 | 38.3 |  |
| CCN(CC)c1ccc2cc(C(=O)N/N=C(/C)c3cccs3)c(=O)oc2c1 | Non-Toxic | > 100 | > 100 |  |
| O=c1c(O)c(-c2ccc(O)c(O)c2)oc2cc(O)cc(O)c12 [QUERCETIN] | Non-Toxic | 43.9 | 22.5 | Activity (HCT-116 [3]): Active; Activity (HeLa [4]): 4.92%; Activity (HeLa [5]): 14.2%; Activity (HCT-116 [6]): 5.35%; Activity (HCT-116 [7]): 10.3%; inhibition (HeLa [8]): Active; inhibition (HCT-116 [9]): Active; inhibition (HCT-116 [10]): Active; inhibition (HeLa [11]): Active; inhibition (HeLa [12]): Active |
| NNC(=O)c1cc2ccc(OCc3ccccc3)cc2oc1=O | Non-Toxic | > 100 | > 100 |  |
| O=C(NCCNC(=O)c1cc2ccc(OCc3ccc([N+](=O)[O-])cc3)cc2oc1=O)c1cc2ccc(OCc3ccc([N+](=O)[O-])cc3)cc2oc1=O | Non-Toxic | 68.1 | 13.9 |  |
| CCN(CC)c1ccc2cc(C(=O)NN)c(=O)oc2c1 | Non-Toxic | 3.36 | 5.48 | Activity (HeLa [13]): Active; Activity (HCT-116 [3]): Active; Activity (HeLa [4]): 5.28%; Activity (HeLa [5]): 6.47%; Activity (HCT-116 [6]): 2.52%; Activity (HCT-116 [7]): 5.94%; inhibition (HeLa [14]): Active; inhibition (HCT-116 [15]): Active; inhibition (HeLa [16]): Active; inhibition (HeLa [8]): Active; inhibition (HCT-116 [9]): Active; inhibition (HCT-116 [10]): Active; inhibition (HeLa [17]): Active; inhibition (HCT-116 [18]): inactive; inhibition (HCT-116 [19]): Active; inhibition (HeLa [12]): Active; inhibition (HCT-116 [20]): Active; inhibition (HCT-116 [21]): Active; inhibition (HeLa [22]): Active; inhibition (HeLa [23]): inactive |
| O=C(NCCO)c1cc2ccc(OCc3cccc(Br)c3)cc2oc1=O | Non-Toxic | 30.8 | 17.6 |  |
| CCCOc1ccc2cc(C(=O)NN)c(=O)oc2c1 | Non-Toxic | 69.8 | > 100 |  |
| NNC(=O)c1cc2ccc(OCc3cccc(Br)c3)cc2oc1=O | Non-Toxic | > 100 | > 100 |  |
| N#C/C(=C\c1ccc(O)cc1)C(=O)O [alpha-CYANO-4-HYDROXYCINNAMIC ACID] | Non-Toxic | 1650 | 2140 | Activity (HeLa [13]): Active; Activity (HeLa [4]): 8.8%; Activity (HeLa [5]): 13.6%; Activity (HCT-116 [6]): 2.07%; Activity (HCT-116 [7]): 9.36%; inhibition (HeLa [8]): Active; inhibition (HCT-116 [9]): Active; inhibition (HCT-116 [10]): Active; inhibition (HeLa [11]): Active; inhibition (HeLa [12]): Active |
| O=C(NCCO)c1cc2ccc(OCc3ccc([N+](=O)[O-])cc3)cc2oc1=O | Non-Toxic | 33.4 | 6.89 |  |
| CCN(CC)c1ccc2cc(C(=O)NCCO)c(=O)oc2c1 | Non-Toxic | > 100 | > 100 |  |
| CCN(CC)c1ccc2cc(C(=O)NO)c(=O)oc2c1 | Non-Toxic | 37.6 | 35.9 |  |
| O=C(NCCNC(=O)c1cc2ccc(OCc3ccccc3)cc2oc1=O)c1cc2ccc(OCc3ccccc3)cc2oc1=O | Non-Toxic | 15.9 | 12.1 |  |
| O=C(NCCO)c1cc2ccc(OCc3ccccc3)cc2oc1=O | Non-Toxic | 18.7 | 14.2 |  |
| O=C(NO)c1cc2ccc(OCc3ccccc3)cc2oc1=O | Non-Toxic | 39.5 | 31.8 |  |
| CCCOc1ccc2cc(C(=O)NCCO)c(=O)oc2c1 | Non-Toxic | > 100 | 22.6 |  |
| CCOc1ccc2cc(C(=O)NCCO)c(=O)oc2c1 | Non-Toxic | > 100 | > 100 |  |
| O=C(Nc1ccccc1)c1cc2ccc(OCc3ccccc3)cc2oc1=O | Non-Toxic | > 100 | > 100 |  |
| CCN(CC)c1ccc2cc(C(=O)NC3CC3)c(=O)oc2c1 | Non-Toxic | > 100 | > 100 |  |
